US20150258084A1, “STEM CELL COMPOSITIONS AND METHODS OF THEIR USE” (Banner Health, priority 2014, published 2015)

How the values were obtained:
Format in all cases: cell-based, rat
cardiac stem cells [1] = assay: RNA expression analysis (real-time RT-PCR) of EMT and pluripotency markers after 7 days with TGF-β inhibitors
Description: Total RNA was extracted from the cardiac stem cells using PureLink RNA Mini Kit (Life Technologies) according to the manufacturer's protocol. RNA was then quantified with a Quanti-iT RiboGreen RNA Assay Kit and assessed using a BioTek Synergy HT Microplate Reader (excitation/emission 480/520 nm). Total RNA (200 ng) was reverse-transcribed with a QuantiTect Reverse Transcription kit (Qiagen). Real-time RT-PCR was conducted using Rower SYBR Green Master Mix (Applied Biosystems) on a StepOnePlus Real-time PCR System (Applied Biosystems). Specific primers were synthesized by Life Technologies. CYPA was used as a reference gene. Data analysis was performed on StepOne software version 2.1 (Applied Biosystems) using the comparative Ct (AACt) quantitation method.
To determine the effect of inhibition of TGF-β signaling in cardiac stem cells on markers of epithelial/endothelial to mesenchymal transition (i.e., EMT markers) and pluripotency markers the following experiments were performed. Cardiac stem cells were isolated from sham and CHF heart tissue as described in Example 1 above. Cardiac stem cells from CHF and sham animals were treated in culture with TGF-β inhibitors SB431542 or SIS3 for 7 days and subsequently assessed for EMT and pluripotency expression by RNA expression analysis and western blotting using the techniques described above in Example 1.

cardiac explants = assay: Morphology of explant cultures after 21 days with TGF-β inhibitors; details: 21 days in culture
[2] = test system: explant-derived cardiac stem cells; assay: Flow cytometry of explant outgrowths cultured 21 days with TGF-β inhibitors
Description: Isolated cardiac stem cells were further characterized using flow cytometry as follows. Cells were fixed in 70% ethanol and labeled with the following antibodies: c-Kit (Santa-Cruz Biotechnology), vimentin and smooth muscle actin (Abcam), and CD90 (BD Biosciences). Cells were treated with secondary antibodies corresponding to either anti-rabbit or anti-mouse IgG conjugated with Alexa 488, phycoerythrin (PE), or PE-Cy5.5 (Life Technologies). Direct labeling with FITC-conjugated CD34 and PE-Cy5.5 conjugated CD45 (BD Biosciences) antibodies was used to exclude bone marrow and hematopoietic cells. Freshly isolated bone marrow cells were used as positive controls for CD34 and CD45 labeling. For a negative control, cells were labeled with isotype IgG instead of primary antibody. Cell events were detected using a FACS Calibur flow cytometer equipped with an argon laser (BD Biosciences). Data were analyzed using CellQuest software (BD Biosciences).
The effects of TGF-β inhibition on the yield of explant-derived cardiac stem cells were examined as follows. Cardiac stem cells were isolated from heart tissue of CHF and sham animals as described in Example 1 above. Cells were subsequently cultured in cardiac differentiation medium (EMD Millipore) supplemented with 2 μmol/L Mocetinostat (SelleckChem) in the presence or absence of TGF-β inhibitors SB431542 and SIS3 for 21 days. Explant outgrowths were analyzed by flow cytometry as described above in Example 1.

cardiac stem cells [3] = assay: Differentiation potential: cardiac troponin T (TnT) immunocytochemistry; details: 7 days in cardiac differentiation medium with 2 μmol/L Mocetinostat
Description: The effects of TGF-β inhibition on the differentiation potential of cardiac stem cells was examined as follows. Cardiac stem cells were isolated from heart tissue of CHF and sham animals as described in Example 1 above. Cells were subsequently cultured in cardiac differentiation medium (EMD Millipore) supplemented with 2 μmol/L Mocetinostat (SelleckChem) in the presence or absence of TGF-β inhibitors SB431542 and SIS3 for 7 days. Expression of cardiac troponin T (TnT) was evaluated by immunocytochemistry. TnT is an accepted marker for cardiac differentiation. Cells were fixed/permeabilized with a 1:1 acetone:ethanol mixture, blocked with 3% BSA in PBS, and labeled with mouse anti-TnT primary antibody (Abcam). Specific staining was visualized using anti-mouse secondary antibodies conjugated with Alexa 568 (Molecular Probes). Nuclei were stained with 4′,6-diamidino-2-phenylindole (Invitrogen). TnT-positive cells were quantified in 5 random microscopic fields. The percentage of TnT-positive cells was calculated as the number of positively stained cells normalized to the total number of cells.

SMILES | increased Sox2 expression (cardiac stem cells [1]; CHF cardiac stem cells) [fold] | upregulated E-cadherin expression (cardiac stem cells [1]; CHF cardiac stem cells) | upregulated Nanog expression (cardiac stem cells [1]; CHF cardiac stem cells) | increased Sox2 expression (cardiac stem cells [1]; sham cardiac stem cells) [fold] | reduced SMA gene expression (cardiac stem cells [1]; sham cardiac stem cells) [fold] | upregulated E-cadherin expression (cardiac stem cells [1]; sham cardiac stem cells) [fold] | upregulated Nanog expression (cardiac stem cells [1]; sham cardiac stem cells) [fold] | number of small, round phase-bright cell clusters compared with controls (cardiac explants) | decreased percentage of vimentin-positive fibroblasts ([2]; CHF CSCs) [%] | increase in the number of c-Kit+ cells ([2]; CHF CSCs) | reduction of the number of SMA-positive myofibroblasts ([2]; CHF CSCs) [%] | decreased percentage of vimentin-positive fibroblasts ([2]; sham CSCs) [%] | increase in the number of c-Kit+ cells ([2]; sham CSCs) [%] | TnT+ cells (cardiac stem cells [3]; CHF cardiac stem cells) [%] | TnT+ cells (cardiac stem cells [3]; sham cardiac stem cells) [%] | reduction of the number of CD90-positive cells ([2]; CHF CSCs) [%] | reduction of the number of CD90-positive cells ([2]; sham CSCs) [%]
NC(=O)c1ccc(-c2nc(-c3ccc4c(c3)OCO4)c(-c3ccccn3)[nH]2)cc1 [SB431542] | 4.1 | 3.6 fold | 2.4 fold | 5.2 | 2 | 6.2 | 2 | higher number | 42 | 75% | 63.3 | 55 | 36.6 | 15.4 | 24.4 | – | –
COc1cc2c(cc1OC)CN(C(=O)/C=C/c1c(-c3ccccc3)n(C)c3ncccc13)CC2 [SIS3] | – | no effect | no effect | 4 | 5 | 5 | 2.2 | higher number | 34 | no effect | 62.8 | 35 | 52 | 19.6 | 36.2 | 53 | 52.4
